Test results taken from US8013053B2, “Water-based inks for ink-jet printing” (Kao Corporation, priority 2005, dated 2011).

Assays:
[1] = Solubility of nonionic organic compound in water; format: physicochemical; conditions: for solubility in 100 g of water: 25° C.; for Solubility: in 100 g of water at 25° C.
Source text: (3) Method of Measuring Solubility of Nonionic Organic Compound

[2] = Surface tension of water containing nonionic organic compound; format: physicochemical; conditions: 25° C.; for Surface tension: water containing 0.001% by weight of the nonionic organic compound
Source text: (4) Method of Measuring Surface Tension of Water Containing Nonionic Organic Compound

| Compound | solubility in 100 g of water [1] [g] | Solubility [1] | surface tension of water containing 0.001% by weight of the nonionic organic compound [2] [mN/m] | Surface tension [2] [mN/m] |
| --- | --- | --- | --- | --- |
| CCCCCCCCC(O)CO (stereo not drawn) [1,2-decanediol] | 0.055 | 0.055 g/100 g | 55 | 55 |
| CCCCCCCCCCC(O)CO (stereo not drawn) [1,2-dodecanediol] | 0.001 | 0.001 g/100 g | 47.1 | 47.1 |
| CCCCC(O)CO (stereo not drawn) [1,2-hexanediol, reference compound] |  | ≧6 g/100 g |  | 71.2 |
| CCCCCCC(O)CO (stereo not drawn) [1,2-octanediol] | 0.20 | 0.2 g/100 g | 65 | 65 |

Next, values leading:

| solubility in 100 g of water [1] [g] | Solubility [1] | surface tension of water containing 0.001% by weight of the nonionic organic compound [2] [mN/m] | Surface tension [2] [mN/m] | Compound |
| --- | --- | --- | --- | --- |
|  | 1 g/100 g |  | 70.7 | OCCCCCCCCO [1,8-octanediol, reference compound] |
| 0.15 | 0.15 g/100 g | 62 | 62 | CCCCC(CC)COCC(O)CO (stereo not drawn) [2-ethylhexyl monoglyceryl ether] |
| 0.05 | 0.05 g/100 g | 57.8 | 57.8 | CC(C)CCCCCCCOCC(O)CO (stereo not drawn) [Isodecyl monoglyceryl ether] |
|  |  | 65 | 65 | Decanoic acid monogriceride |
| 0.005 | 0.12 g/100 g | 63 | 63 | Lauric acid monogriceride |
